Test: Compatibility tests of imeglimin with excipients as 50:50 (w/w) binary mixture
Assay type: physicochemical
Description: In a preferred embodiment, the binder consists of hydroxypropylcellulose. In other embodiments, it may comprise at least one other binder in addition to hydroxypropylcellulose, which may be selected from: microcrystalline cellulose, methylcellulose, ethylcellullose, hydroxyethylcellulose, hydroxypropylmethylcellulose (hypromellose), sodium carboxymethylcellulose (carmellose), gelatin, gum arabic, dextrin, maltodextrin, pregelatinized starch, gelatin, acacia gum, guar gum, sodium alginate, alginic acid, carbomer, polyvinyl alcohol and mixtures thereof. […] The binder(s) may represent from 1.5 to 4.5 wt. %, preferably from 3.5 to 4.5 wt. %, relative to the total weight of the tablet.
In addition to the binder(s), the tablet of this invention comprises at least one disintegrant. […] The disintegrant may thus be selected from the group consisting of: sodium croscarmellose, sodium carboxymethyl starch, hydroxypropylcellulose, calcium carboxymethylcellulose, microcrystalline cellulose, calcium carbonate, magnesium aluminum silicate, sodium starch glycolate, pregelatinized starch, sodium alginate, alginic acid, guar gum and their mixtures, for instance. Preferably, the disintegrant comprises, or preferably is, sodium croscarmellose. The disintegrant(s) may represent from 1.5 to 3 wt. %, preferably from 1.8 to 2.2 wt. %, relative to the total weight of the tablet.

Structure (SMILES): C[C@@H]1NC(=N)N=C(N(C)C)N1.Cl [imeglimin, (+)-2-amino-3,6-dihydro-4-dimethylamino-6-methyl-1,3,5-triazine hydrochloride]
- formation of degradation products (compatibility) (50:50 (w/w) binary mixture with crospovidone): degradation products are formed
- formation of degradation products (compatibility) (50:50 (w/w) binary mixture with polyvinylpyrrolidone (povidone)): degradation products are formed

From patent publication US11813362B2, “Film-coated tablet comprising a triazine derivative for use in the treatment of diabetes” (Poxel, priority 2018, dated 2023)
